One data set concerns the target hCA I (Homo sapiens, UniProt P00915). Kind of data set: CA inhibition, CO2 hydration method, isozyme I. The format is biochemical. The following applies: read-out: KI hCA I.
In the next data set the target is hCA II (Homo sapiens, UniProt P00918). Kind of data set: CA inhibition, CO2 hydration method, isozyme II. The format is biochemical. The note with it: for pKi: human cloned isozyme, CO2 hydration method; for hCA II inhibitors, ranking in the series: discussion of Table 1.
A further data set has as its target hCA IX (Homo sapiens, UniProt Q16790). Briefly: CA inhibition, CO2 hydration method, isozyme IX (catalytic domain). The format is biochemical.
Data set [1] relates to human red cells. Briefly: Ex vivo penetration through red blood cell membranes. The following applies: for [sulfonamide] in red blood cells, t = 30 min, HPLC / [sulfonamide] in red blood cells, t = 30 min, ES / [sulfonamide] in red blood cells, t = 60 min, HPLC / [sulfonamide] in red blood cells, t = 60 min, ES / [sulfonamide] in red blood cells, t = 48 h, HPLC / [sulfonamide] in red blood cells, t = 48 h, ES: 3 mM sulfonamide in 5 mM Tris buffer pH 7.4; for [sulfonamide] in red blood cells, t = 30 min, HPLC / [sulfonamide] in red blood cells, t = 60 min, HPLC / [sulfonamide] in red blood cells, t = 48 h, HPLC: HPLC method; for [sulfonamide] in red blood cells, t = 30 min, ES / [sulfonamide] in red blood cells, t = 60 min, ES / [sulfonamide] in red blood cells, t = 48 h, ES: electronic spectroscopy.

Data set [2] deals with human red cells.
In another data set the target is hCA XII (Homo sapiens, UniProt O43570). Kind of data set: CA inhibition, CO2 hydration method, isozyme XII (catalytic domain). The format is biochemical. The following applies: Table 2, catalytic domain of human cloned isozyme.
Sequence of hCA XII (O43570 30-289 limits assumed): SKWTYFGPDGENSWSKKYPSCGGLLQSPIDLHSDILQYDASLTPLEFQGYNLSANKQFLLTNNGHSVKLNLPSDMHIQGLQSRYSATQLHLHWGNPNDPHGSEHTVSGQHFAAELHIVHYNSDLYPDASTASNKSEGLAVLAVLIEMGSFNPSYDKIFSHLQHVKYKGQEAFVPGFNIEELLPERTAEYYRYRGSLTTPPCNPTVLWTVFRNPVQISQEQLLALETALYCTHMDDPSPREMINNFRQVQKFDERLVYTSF
Setting [3] is: Table 1, catalytic domain of human cloned isozyme.
Setting [4] is: Table 2, catalytic domain of human cloned isozyme.

The source of these data is patent publication US20080138291A1, “Sulfonamide Derivatives Having Carbonic Anhydrase Inhibiting Activity and their Use as Therapeutic and Diagnostic Agents” (UNION LIFE SCIENCES LTD., priority 2005, published 2008).

What is called pKi is the negative decadic logarithm of the Ki, by convention in mol/L.

pKi: −log10 of the molar value. Read-outs that look alike come from different tables or passages of the source.

Sequence of hCA I (P00915 whole entry): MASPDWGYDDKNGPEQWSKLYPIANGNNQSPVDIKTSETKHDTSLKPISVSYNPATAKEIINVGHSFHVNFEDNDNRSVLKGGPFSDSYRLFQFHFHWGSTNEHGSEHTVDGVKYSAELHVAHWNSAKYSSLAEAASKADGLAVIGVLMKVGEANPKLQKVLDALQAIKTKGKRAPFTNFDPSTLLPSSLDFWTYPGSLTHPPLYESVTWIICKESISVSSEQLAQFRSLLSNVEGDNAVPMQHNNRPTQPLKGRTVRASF

For `NS(=O)(=O)c1ccc(NC(=S)Nc2ccc(-c3c4ccc(=O)cc-4oc4cc(O)ccc34)c(C(=O)O)c2)cc1` [5a, (4-Sulfamoylphenyl)thioureido fluorescein], the pKi at hCA I (Table 1, human cloned isozyme) was 5.82; on hCA II (Table 1) it was 7.39; on hCA IX (setting [3]) it was 7.54.
On to `NS(=O)(=O)c1ccc(CNC(=S)Nc2ccc(-c3c4ccc(=O)cc-4oc4cc(O)ccc34)c(C(=O)O)c2)cc1` [5b, (4-sulfamoylphenylmethyl)thioureido fluorescein], for which the pKi on hCA I (Table 1, human cloned isozyme) was 5.84. The same molecule had a pKi on hCA IX (setting [3]) of 7.59. In the data set with human red cells [1], the “[sulfonamide] in red blood cells, t = 30 min, HPLC” value amounted to 0.5 µM; the “[sulfonamide] in red blood cells, t = 30 min, ES” value turned out to be 0.8 µM; the “[sulfonamide] in red blood cells, t = 60 min, HPLC” value was found to be 0.8 µM; the “[sulfonamide] in red blood cells, t = 60 min, ES” value was determined as 0.8 µM. In the data set on human red cells [1], the “[sulfonamide] in red blood cells, t = 48 h, HPLC” value stood at 10.1 µM and the “[sulfonamide] in red blood cells, t = 48 h, ES” value amounted to 2.5 µM. Further, the “membrane permeability at exposure times of 30-60 min” value in the data set with human red cells [1] (human RBCs, 30-60 min, pH 7.4) is “decreased membrane permeability”. Further, the “membrane permeability after 48 hours of exposure” value with human red cells [1] (human RBCs, 48 hours, pH 7.4) is “slightly more permeant”.
Turning to `NS(=O)(=O)c1ccc(NNC(=S)Nc2ccc(-c3c4ccc(=O)cc-4oc4cc(O)ccc34)c(C(=O)O)c2)cc1` [5d], the pKi on hCA I (Table 1, human cloned isozyme) was 5.92; at hCA II (Table 1), 7.40; on hCA IX (setting [3]) it was 7.60.
Regarding `NS(=O)(=O)c1ccc(NC(=S)Nc2ccc(-c3c4ccc(=O)cc-4oc4cc(O)ccc34)c(C(=O)O)c2)c(F)c1` [5e], the pKi is 6.01 at hCA I (Table 1, human cloned isozyme) and 7.52 on hCA IX (setting [3]).
Regarding `NS(=O)(=O)c1ccc(NC(=S)Nc2ccc(-c3c4ccc(=O)cc-4oc4cc(O)ccc34)c(C(=O)O)c2)c(Cl)c1` [5f], the pKi was 6.02 at hCA I (Table 1, human cloned isozyme); 7.28 at hCA II (Table 1); 7.49 at hCA IX (setting [3]).
Turning to `NS(=O)(=O)c1ccc(NC(=S)Nc2ccc(-c3c4ccc(=O)cc-4oc4cc(O)ccc34)c(C(=O)O)c2)c(Br)c1` [5g], the pKi is 5.96 at hCA I (Table 1, human cloned isozyme); 7.37 on hCA II (Table 1); 7.46 at hCA IX (setting [3]).
For `NS(=O)(=O)c1ccc(NC(=S)Nc2ccc(-c3c4ccc(=O)cc-4oc4cc(O)ccc34)c(C(=O)O)c2)c(I)c1` [5h, (2-Iodo-4-sulfamoylphenyl)thioureido fluorescein], the pKi on hCA I (Table 1, human cloned isozyme) is 5.97; on hCA II (Table 1), 7.40; at hCA IX (setting [3]), 7.51.
On to `NS(=O)(=O)c1cccc(NC(=S)Nc2ccc(-c3c4ccc(=O)cc-4oc4cc(O)ccc34)c(C(=O)O)c2)c1` [5i, (3-Sulfamoylphenyl)thioureido fluorescein], for which the pKi on hCA I (Table 1, human cloned isozyme) was 5.85; at hCA II (Table 1), 7.28; at hCA IX (setting [3]), 7.47.
In the case of `NS(=O)(=O)c1ccc(CNS(=O)(=O)c2ccc(NC(=S)Nc3ccc(-c4c5ccc(=O)cc-5oc5cc(O)ccc45)c(C(=O)O)c3)cc2)cc1` [5j], the negative-log Ki (pKi) was 6.20 at hCA I (Table 1, human cloned isozyme); 7.47 at hCA II (Table 1); 7.70 at hCA IX (setting [3]). The “hCA II inhibitors, ranking in the series” value at hCA II was “best hCA II inhibitors in this series”.
With `NS(=O)(=O)c1nnc(NS(=O)(=O)c2ccc(NC(=S)Nc3ccc(-c4c5ccc(=O)cc-5oc5cc(O)ccc45)c(C(=O)O)c3)cc2)s1` [5k, [4-(5-Sulfamoyl-[1,3,4]thiadiazol-2-ylsulfamoyl)-phenyl]-thioureido fluorescein], the pKi was 6.32 on hCA I (Table 1, human cloned isozyme); 7.57 at hCA II (Table 1); 7.80 on hCA IX (setting [3]). In addition, the “hCA II inhibitors, ranking in the series” value on hCA II is given as “best hCA II inhibitors in this series”.
Take `CC(=O)/N=c1/sc(S(N)(=O)=O)nn1C` [MZA, methazolamide, reference compound]: the “penetration through red blood cell membranes” value in the data set with human red cells [2] is listed as “easily penetrate through biological membranes”. In addition, in the data set with human red cells [1], the “[sulfonamide] in red blood cells, t = 30 min, HPLC” value was found to be 170 µM; the “[sulfonamide] in red blood cells, t = 30 min, ES” value stood at 169 µM; the “[sulfonamide] in red blood cells, t = 60 min, HPLC” value is 168 µM; the “[sulfonamide] in red blood cells, t = 60 min, ES” value amounted to 168 µM. In the data set with human red cells [1], the “[sulfonamide] in red blood cells, t = 48 h, HPLC” value is 167 µM and the “[sulfonamide] in red blood cells, t = 48 h, ES” value came out at 169 µM.
Consider `NS(=O)(=O)c1ccc(NC(=O)Nc2ccc(-c3c4ccc(=O)cc-4oc4cc(O)ccc34)c(C(=O)O)c2)cc1` [compound 1, (4-Sulfamoylphenyl)ureido fluorescein], for which the pKi on hCA I (Table 2, human cloned isozyme) is 5.77; at hCA II (Table 2), 7.44; on hCA IX (setting [4]) it was 7.68; at hCA XII, 7.96.
As to `NS(=O)(=O)c1cccc(NC(=O)Nc2ccc(-c3c4ccc(=O)cc-4oc4cc(O)ccc34)c(C(=O)O)c2)c1` [compound 2, (3-Sulfamoylphenyl)ureido fluorescein], the pKi was 5.74 on hCA I (Table 2, human cloned isozyme); 7.37 at hCA II (Table 2); 7.52 at hCA IX (setting [4]); 8.05 at hCA XII.
Take `NS(=O)(=O)c1ccccc1NC(=O)Nc1ccc(-c2c3ccc(=O)cc-3oc3cc(O)ccc23)c(C(=O)O)c1` [compound 3, (2-Sulfamoylphenyl)ureido fluorescein]: the pKi at hCA I (Table 2, human cloned isozyme) is 5.72; on hCA II (Table 2) it was 7.12; on hCA IX (setting [4]), 7.34; at hCA XII, 7.74.
As for `NS(=O)(=O)c1ccc(CNC(=O)Nc2ccc(-c3c4ccc(=O)cc-4oc4cc(O)ccc34)c(C(=O)O)c2)cc1` [compound 4, (4-Sulfamoylphenylmethyl)ureido fluorescein], the pKi is 5.81 at hCA I (Table 2, human cloned isozyme); 7.40 on hCA II (Table 2); 7.68 at hCA IX (setting [4]); 8.10 on hCA XII.
Consider `NS(=O)(=O)c1ccc(CCNC(=O)Nc2ccc(-c3c4ccc(=O)cc-4oc4cc(O)ccc34)c(C(=O)O)c2)cc1` [compound 5, (4-Sulfamoylphenylethyl)ureido fluorescein], for which the pKi is 5.87 on hCA I (Table 2, human cloned isozyme); 7.46 on hCA II (Table 2); 8.15 at hCA XII.
Regarding `NS(=O)(=O)c1ccc(NC(=O)Nc2ccc(-c3c4ccc(=O)cc-4oc4cc(O)ccc34)c(C(=O)O)c2)c(F)c1` [compound 6, (2-Fluoro-4-sulfamoylphenyl)ureido fluorescein], the pKi on hCA I (Table 2, human cloned isozyme) was 5.92; at hCA II (Table 2), 7.40; on hCA IX (setting [4]), 7.68; at hCA XII, 8.00.
Turning to `NS(=O)(=O)c1ccc(NC(=O)Nc2ccc(-c3c4ccc(=O)cc-4oc4cc(O)ccc34)c(C(=O)O)c2)c(Cl)c1` [compound 7], the negative-log Ki (pKi) is 5.88 at hCA I (Table 2, human cloned isozyme); 7.37 at hCA II (Table 2); 7.66 at hCA IX (setting [4]); 7.92 on hCA XII.
On to `NS(=O)(=O)c1ccc(NC(=O)Nc2ccc(-c3c4ccc(=O)cc-4oc4cc(O)ccc34)c(C(=O)O)c2)c(I)c1` [compound 9, (2-Iodo-4-sulfamoylphenyl)ureido fluorescein], for which the pKi is 5.87 at hCA I (Table 2, human cloned isozyme); 7.37 on hCA II (Table 2); 7.68 at hCA IX (setting [4]); 8.15 on hCA XII.
Regarding `NS(=O)(=O)c1ccc(CNS(=O)(=O)c2ccc(NC(=O)Nc3ccc(-c4c5ccc(=O)cc-5oc5cc(O)ccc45)c(C(=O)O)c3)cc2)cc1` [compound 10, [4-(4-Sulfamoyl-benzylsulfamoyl)-phenyl]-ureido fluorescein], the pKi was 6.28 at hCA I (Table 2, human cloned isozyme); 7.85 at hCA II (Table 2); 8.15 on hCA IX (setting [4]); 8.30 at hCA XII.
In the same order, the values of `NS(=O)(=O)c1nnc(NS(=O)(=O)c2ccc(NC(=O)Nc3ccc(-c4c5ccc(=O)cc-5oc5cc(O)ccc45)c(C(=O)O)c3)cc2)s1` [compound 11, [4-(5-Sulfamoyl-[1,3,4]thiadiazol-2-ylsulfamoyl)-phenyl]-ureido fluorescein] are 6.39, 7.89, 8.22 and 8.52.
